Test results from paper PMC4189182 (Journal of cardiac failure, 2014).

Experiments:
[1] = human, in vivo
[2] = in vivo; cited from earlier work

**Q.** Which Halflife [1] does the source give for `CC[C@H](C)[C@@H]1NC(=O)[C@H](CCCNC(=N)N)NC(=O)[C@H](CC(=O)O)NC(=O)[C@H](CCSC)NC(=O)[C@H](CCCCN)NC(=O)[C@H](CCCNC(=N)N)NC(=O)CNC(=O)[C@H](Cc2ccccc2)NC(=O)[C@@H](NC(=O)CNC(=O)[C@H](CO)NC(=O)CNC(=O)[C@H](CCC(N)=O)NC(=O)[C@@H](NC(=O)[C@H](CCSC)NC(=O)[C@H](CCCCN)NC(=O)[C@@H]2CCCN2C(=O)[C@@H](N)CO)C(C)C)CSSC[C@@H](C(=O)N[C@@H](CCCCN)C(=O)N[C@H](C(=O)N[C@@H](CC(C)C)C(=O)N[C@@H](CCCN=C(N)N)C(=O)N[C@@H](CCCN=C(N)N)C(=O)N[C@@H](Cc2cnc[nH]2)C(=O)O)C(C)C)NC(=O)CNC(=O)[C@H](CC(C)C)NC(=O)CNC(=O)[C@H](CO)NC(=O)[C@H](CO)NC(=O)[C@H](CO)NC(=O)[C@H](CO)NC1=O` [nesiritide] here?
**A.** 14.4 min

**Q.** And the “increase in Clearance associated with genotype at rs6798179 (MME)” value ([1]; iv)?
**A.** roughly 50%

**Q.** And the “increase in K associated with genotype at rs6798179 (MME)” value ([1]; iv)?
**A.** roughly 50%

**Q.** And the “range of Adjusted BNP Clearance” value ([1]; iv)?
**A.** 0.1 to 67 mL/min

**Q.** What about the “range of BNP Clearance” value ([1]; iv) of the same compound?
**A.** 0.027 to 7.25 mL/min

**Q.** What about the “range of Half-life” value ([1]; iv) of the same compound?
**A.** 6.6 to 56.4 min

**Q.** And the “range of K” value ([1]; iv)?
**A.** 0.002-9.7

**Q.** What about the “range of ΔBNP” value ([1]; iv) of the same compound?
**A.** 14 to 7900 pg/mL

**Q.** And the “smaller change in BNP due to infusion associated with genotype at rs6798179 (MME)” value ([1]; iv)?
**A.** ~40%

**Q.** What about the “previously reported average half-life” value [2] of the same compound?
**A.** roughly 18 minutes
